Laboratory results from patent publication US10519504B2, “Methods for treatment of oncological disorders using epimetabolic shifters, multidimensional intracellular molecules, or environmental influencers” (Berg LLC, priority 2009, dated 2019).
Read-outs that look alike come from different tables or passages of the source.

Legend:
[1] = system: HepG2 (liver cancer) cells; assay: Real-time PCR Diabetes Array; type: cell-based; settings: 100 μM Q10
Method: The treatment was initiated on 1×10^5 cells per well, following the procedure utilized in the PaCa2 cells (above, Examples 9-11). However, the total amount of RNA that was extracted from these samples was lower than expected. Reverse transcription is normally done using 1 μg of total RNA (determined by measurement at 260 nm). The maximum volume that can be used per reverse transcription is 8 μl.

Hif1 alpha = assay: Western blot, Hif1 alpha levels; type: cell-based, human
Method: The Actin blots were stripped by incubating for 30 minutes with methanol, followed by two 10 minute washes with TBS-T, then 30 minutes of incubation with Stripping buffer at 50 deg C., and followed by two washes with 100 ml or more of TBS-T for 30′ each. The blots were scanned in laser scanner to check for complete stripping. The blots were activated with methanol for 5 seconds, washed with water for 5 minutes, and TBST for 15 minutes. The blots were blocked for 1 hour with 5% blocking reagent in TBS-T at room temperature and then washed 3 times with TBS-T (1X−15′; 2X5′ each) and probed with the primary antibody for Hif 1 alpha, Caspase 3 or PDHB in 5% BSA (at 1:200 by incubation overnight at 4 deg C. with gentle shaking. The primary antibody for Hif 1 alpha (Abcam ab2185; antirabbit) was at 1:500 dilution in 5% BSA. The primary antibody for Caspase 3 (Santacruz sc7272; antirabbit) was at 1:200 dilution in 5% BSA. The primary antibody for Pyruvate Dehydrogenase beta (PDHB) (Novus Biologicals H00005162-M03; antimouse) was at 1:500 dilution in 5% BSA. After incubation with primary antibodies, the membranes were washed 3 times with TBS-T (1X−15′; 2X5′ each) and probed with the secondary antibody (PDHB antimouse; Hif 1a and Caspase 3 antirabbit; 1:10,000 dilution) for 1 h at room temperature. […]

HASMC cells = assay: Diabetes PCR array; type: cell-based, human
Method: The HK-2 and HASMC cells are normally maintained in culture at 5.5 mM glucose, which is a concentration that corresponds to a range considered normal in human blood. However, in order to simulate a diabetic environment, both cell lines were subsequently maintained at 22 mM glucose, which corresponds to the range observed in human blood associated with chronic hyperglycemia. The cells were subsequently allowed to propagate over 3 passages so that the intracellular regulation processes were functionally adapted to mimic a diabetic state. The choice of cell line was based on the physiologic influence of diabetes on renal dysfunction and progression to end-stage renal disease (ESRD) in addition to the progressive pathophysiology of a compromised cardiovascular function.
The Diabetes PCR array (SABiosciences) offers a screen for 84 genes simultaneously.
A stringent analysis of the Real time PCR data of the HASMC cell samples on the Diabetes Arrays (Cat #PAHS-023E, SABiosciences Frederick Md.) was made to exclude all results where gene regulation was not at least a two-fold regulation over HASMC normal untreated cells with a p value of less than 0.05.

HDFa cells = assay: OCR and ECAR, SeaHorse XF analyzer; type: cell-based, human
Text: (SeaHorse Biosciences Inc, North Billerica, Mass.).
In this experiment, the OCR and extracellular acidification rate (ECAR) in normal cells lines were obtained in the presence and absence of CoQ10 to determine baseline values. It was observed that in its native nutrient environment, the basal OCR rates in normal cells lines are different, and are usually a function of the physiological roles of the cells in the body. […]
Table 97 below describes the ECAR values (mpH/min) in HDFa cells in the presence or absence of CoQ10 under normoxic and hypoxic conditions at 5.5 mM and 22 mM glucose.

SKMEL-28 cells = assay: 2-D gel electrophoresis proteomic analysis; type: cell-based
Method: Protein was isolated from the treated and control flask after 4, 8, 12, and 24 hours. For isolation of proteins, cells were washed three times with 5 mL of ice cold PBS at a pH of 7.4. The cells were then scraped in 3 mL of PBS, pelleted by centrifuge, and re-suspended in a lysis buffer at pH 7.4 (80 mM TRIS-HCl, 1% SDS, with protease and phosphotase inhibitors). Protein concentrations were quantified using the BCA method.
The gels were run in duplicate.
The first experimental set processed and evaluated by Western blot and 2-D gel electrophoresis was the skin cancer cell line SKMEL-28.
A comparative analysis of 943 spots across all twenty-four gels was performed, comparing the control sample against all of the treated samples. The analysis included the identification of spot changes over the time course due to increase, decrease, or post-translational modification.
The analysis found thirty-two statistically significant differential spot changes. […] The characterized peptides were searched against protein databases with Mascot and MSRAT software analysis to identify the protein (Table 2).

[2] = system: induced pancreatic cancer; settings: for survival after 28 days: intravenous

**Q.** Which results are given for `COC1=C(OC)C(=O)C(C/C=C(\C)CC/C=C(\C)CC/C=C(\C)CC/C=C(\C)CC/C=C(\C)CC/C=C(\C)CC/C=C(\C)CC/C=C(\C)CC/C=C(\C)CCC=C(C)C)=C(C)C1=O` [Q10, Coenzyme Q10]?
**A.** PPARGC1A regulation ([1]; HepG2, 48 hours): normalized or were slightly upregulated; PRKAA1 regulation ([1]; HepG2, 48 hours): normalized or were slightly upregulated; genes regulated in the Diabetes Arrays ([1]; HepG2 cells, genes: PPARGC1A, PRKAA1, SNAP25): List of genes regulated in the Diabetes Arrays when HepG2 cells; Hif1 alpha protein levels (Hif1 alpha; mitochondrial preparations of cancer cells): decreased Hif1 alpha protein levels; Hif1a lower band (Hif1 alpha; whole cell lysates of normal cells): showed a decrease as well; expression of CCL5 (HASMC cells; HASMC cells): significant decrease in the expression of CCL5; expression of AGT, CEACAM1, INSR, SELL, IL-6, TNF, CCL5 (HASMC cells; hyperglycemic HASMC cells): altered expression of genes; ECAR (HDFa cells; 50 μM, Hypoxia (5.5 mM) glucose): 5 mpH/min; ECAR (HDFa cells; 50 μM, Hypoxia (22 mM) glucose): 6 mpH/min; ECAR (HDFa cells; 50 μM, Normoxia (5.5 mM) glucose): 6 mpH/min; ECAR (HDFa cells; 50 μM, Normoxia (22 mM) glucose): 5 mpH/min; ECAR (HDFa cells; 100 μM, Hypoxia (5.5 mM) glucose): 5 mpH/min; ECAR (HDFa cells; 100 μM, Hypoxia (22 mM) glucose): 8 mpH/min; ECAR (HDFa cells; 100 μM, Normoxia (5.5 mM) glucose): 6 mpH/min; ECAR (HDFa cells; 100 μM, Normoxia (22 mM) glucose): 5 mpH/min; ECAR (HDFa cells; HDFa, high glucose hypoxic conditions): lowering of elevated ECAR to a value that was observed in untreated normoxic conditions; ECAR values (HDFa cells; HDFa, normoxic and hypoxic, 5.5 mM and 22 mM glucose): minimal influence on ECAR values; Transaldolase 1 level (SKMEL-28 cells): decrease of Transaldolase 1; dose response of survival ([2]; 5 to 50 mg/kg): those animals receiving higher doses had a higher survival rate; survival after 28 days ([2]; Group G: 50 mg/kg): all of the animals receiving the highest dose of coenzyme Q10 (Group G) remained alive at 28 days; survival after 28 days ([2]; Groups D, E, F: 5, 10, 25 mg/kg): most of the animals in Groups D, E and F remained alive
